# Reference: US12252472B1, “Barbituric acid derivatives, their preparation and use thereof as leukocyte transmigration inhibitors and for treating inflammatory diseases, autoimmune diseases and cancer” (BAR-ILAN UNIVERSITY, priority 2017, dated 2025)
# Entries after “also recorded” stand apart in the source; their conditions may differ.
# Assays:
# human B-lymphoma cells = assay: B-lymphoma homing assay in NOD.CB17-Prkdcscid/J mice; assay type: in vivo
# Protocol: Effect on the homing of the B-lymphocytes was tested in a model of B-cell lymphoma. Compound of Formula 2 (7.5 μM) was injected IV, together with 10×10^6 human B-lymphoma cells. After one and a half hours the amount of B-lymphocytes was tested in different organs.
# C57BL/6J mice [1] = assay: High-fat-diet induced non-alcoholic fatty liver disease (NAFLD) model; assay type: in vivo, mouse; conditions: 15 mg/kg SC or IP q3w; 30 mg/kg PO qd; 65 days
# Protocol: Male C57BL/6J (Envigo, Israel) mice (3-4 weeks of age) were fed ad libitum a high fat, no high carbohydrate diet (modified Western diet, WD) with 42% kcal from fat and containing 0.1% cholesterol (Harlan TD.88137) with normal water (without high fructose-glucose solution) for […] prior to treatment initiation. Control mice were fed a standard chow diet (CD, Harlan TD.7012) with normal water (NW). Compound of Formula 2 was administrated on the 85th day of the high fat diet (15 mg/kg, for S.C and IP at q3w regiment; 30 mg/kg for PO at qd regiment) for 65 days. Mock treated (vehicle) control group was administrated with IP injections at the same volume and regiment as a corresponding treated group for 65 days. Body weight of animals was determined prior to the treatment initiation and the administered volume of the compound of Formula 2 was adjusted according to the body weight. All animals were euthanized 24 hours post last dose administration. At necropsy liver and mesenteric fat wet weights were determined. Liver and mesenteric fat were fixed with 4% buffered formalin, embedded in paraffin, sections and H&E stained. Steatohepatitis was defined by the presence of steatosis, inflammation and hepatocellular ballooning, as per the FLIP algorithm. The severity of steatosis, lobular inflammation and hepatocellular ballooning were scored using the NASH-Clinical Research Network (CRN) criteria. NAFLD activity score (NAS) was calculated by adding the scores of: steatosis (maximal score 3) is defined by more than 66% of hepatocytes containing fat droplets; lobular inflammation (maximal score 3) is defined by >4 foci/200 field; hepatocyte ballooning (maximal score 2) is defined by many cells/prominent ballooning. Ordinary one-way ANOVA statistical analysis was performed.
# C57BL/6J mice [2] = assay: Thioglycollate peritonitis model, leukocyte counting in peritoneal liquid; assay type: in vivo, mouse
# Protocol: C57BL/6J (The Jackson Laboratory) female mice were chosen for this experiment. The acute inflammation was induced by thioglycollate injection into the abdominal cavity as described by Hoover-Plow J. L. et al. (Strain and model dependent differences in inflammatory cell recruitment in mice. Inflammation Research, 2008. 57(10): p. 457-463).
# Mice were injected intraperitoneally with 0.5 mL of 4% thioglycollate (Becton Dickinson, Cockeysville, MD) and after 6 or 72 hours corresponding to peak neutrophil (6 hours) and macrophage (72 hours) recruitment, peritoneal lavage fluid, and cells were harvested as previously described by Ploplis, V. A. et al. (Plasminogen deficiency differentially affects recruitment of inflammatory cell populations in mice. Blood, 1998. 91(6): p. 2005-2009). The number of neutrophils and macrophages (Tang, L. P. and J. W. Eaton, Fibrin (Ogen) Mediates Acute Inflammatory Responses to Biomaterials. Journal of Experimental Medicine, 1993. 178(6): p. 2147-2156) accumulating in the lavage were determined from the enzyme activity of myeloperoxidase for neutrophils (Himmelhoch, S. R., et al., Purification of myeloperoxidases from the bone marrow of the guinea pig. Biochemistry, 1969. 8(3): p. 914-21) and non-specific esterase for macrophage/monocytes (Torres, J. L., R. S. Rush, and A. R. Main, Physical and chemical characterization of a horse serum carboxylesterase. Arch Biochem Biophys, 1988. 267(1): p. 271-9).
# After inducing the inflammation (peritonitis), compound of Formula 2 was injected at a concentration of 12.5 mg/kg (DMSO, 01% in PBS, IP), twice (one day after the other). The next day, mice were sacrificed and the peritoneal liquid was collected from the control and treated mice (n=3 for each group). Two assays were conducted for the estimation of the possible anti-inflammatory effect of compound of Formula 2: leukocyte counting (the total amount and the calculation of the percentage of different leukocyte fractions) and a flow cytometry.
# [3] = 7.5 μM IV together with 10×10^6 cells, after one and a half hours
smiles,measurement,setting,value
"COC(=O)c1ccc(COc2c(C=C3C(=O)NC(=O)NC3=O)cccc2C(C)(C)C)cc1 [Formula 2, methyl 4-((2-(tert-butyl)-6-((2,4,6-trioxotetrahydropyrimidin-5(2H)-ylidene)methyl)phenoxy)methyl) benzoate]",homing of the cancer cells to the spleen and liver,human B-lymphoma cells; 7.5 μM IV,significantly blocked
same,reduction of B-lymphocyte homing in liver,human B-lymphoma cells; [3],around 33%
same,reduction of B-lymphocyte homing in spleen,human B-lymphoma cells; [3],around 22%
same,NAFLD activity score,C57BL/6J mice [1],significant reduction; also recorded: therapeutic effect
same,mesenteric fat weight,C57BL/6J mice [1],significant reduction; also recorded: decreased
same,mice body weight,C57BL/6J mice [1],significant reduction
same,wet liver weight,C57BL/6J mice [1],significant reduction; also recorded: decreased
same,amount of neutrophils and monocytes,"C57BL/6J mice [2]; 12.5 mg/kg IP, twice",not affected
same,increase of the amount of dendritic cells in the peritoneal liquid,"C57BL/6J mice [2]; 12.5 mg/kg IP, twice",2.5 fold
same,reduction of the amount of lymphocytes in the peritoneal liquid,"C57BL/6J mice [2]; 12.5 mg/kg IP, twice",85%
same,total amount of leukocytes in the abdominal liquid,"C57BL/6J mice [2]; 12.5 mg/kg IP, twice",not affected
same,White blood cell (WBC) counts of peritoneal fluids,"C57BL/6J mice [2]; FIG. 8 legend: 30 μM injected once on the third day, n=6",reduced
